Measured values published in publication PMC9516332 (Frontiers in Oncology, 2022).
Where two headings read alike, the source gives them in different places.

What was measured:
Assay in all cases: Kinase panel profiling at 1 µmol/L (MSA or IMAP), percentage inhibition
Assay type in all cases: biochemical
[1] = biological target: panel of 255 wild-type kinases (Homo sapiens, UniProt P05129); conditions: read-out: %-inhibition at 1 µmol/L, PKCγ
[2] = biological target: T1, panel of 255 wild-type kinases (Homo sapiens, UniProt P51955); conditions: read-out: %-inhibition, NEK2
T1 sequence (P51955 1-445): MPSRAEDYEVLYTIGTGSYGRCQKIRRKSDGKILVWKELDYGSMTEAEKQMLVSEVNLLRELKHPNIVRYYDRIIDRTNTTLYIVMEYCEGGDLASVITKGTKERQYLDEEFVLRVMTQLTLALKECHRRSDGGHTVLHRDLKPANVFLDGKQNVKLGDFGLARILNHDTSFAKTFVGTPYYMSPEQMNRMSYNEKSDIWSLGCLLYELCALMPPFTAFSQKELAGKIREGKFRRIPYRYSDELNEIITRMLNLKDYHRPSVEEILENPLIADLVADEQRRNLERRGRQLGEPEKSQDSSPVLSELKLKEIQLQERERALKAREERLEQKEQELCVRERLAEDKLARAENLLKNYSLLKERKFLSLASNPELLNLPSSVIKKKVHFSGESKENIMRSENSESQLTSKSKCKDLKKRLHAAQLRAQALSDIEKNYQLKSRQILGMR

[3] = biological target: panel of 255 wild-type kinases (Homo sapiens, UniProt P78362); conditions: read-out: %-inhibition at 1 µmol/L, SRPK2
[4] = biological target: T2, panel of 255 wild-type kinases (Homo sapiens, UniProt Q05513); conditions: read-out: %-inhibition at 1 µmol/L, PKCζ
T2 sequence (Q05513 1-592): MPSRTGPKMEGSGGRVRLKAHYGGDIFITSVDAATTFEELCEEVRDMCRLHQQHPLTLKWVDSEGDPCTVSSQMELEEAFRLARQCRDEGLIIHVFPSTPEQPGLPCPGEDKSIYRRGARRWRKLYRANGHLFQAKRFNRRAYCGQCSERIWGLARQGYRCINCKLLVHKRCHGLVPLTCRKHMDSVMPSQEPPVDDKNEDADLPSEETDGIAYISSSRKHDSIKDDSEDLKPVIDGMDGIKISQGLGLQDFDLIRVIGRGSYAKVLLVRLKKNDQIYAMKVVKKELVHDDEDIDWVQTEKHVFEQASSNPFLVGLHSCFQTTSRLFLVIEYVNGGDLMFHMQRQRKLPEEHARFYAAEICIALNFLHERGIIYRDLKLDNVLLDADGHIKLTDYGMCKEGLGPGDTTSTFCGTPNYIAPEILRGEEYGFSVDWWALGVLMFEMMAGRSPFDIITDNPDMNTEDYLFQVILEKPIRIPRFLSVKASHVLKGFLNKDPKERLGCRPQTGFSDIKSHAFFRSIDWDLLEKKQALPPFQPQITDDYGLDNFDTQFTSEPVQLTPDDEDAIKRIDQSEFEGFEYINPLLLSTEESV

[5] = biological target: T3, panel of 255 wild-type kinases (Homo sapiens, UniProt Q9H093); conditions: read-out: %-inhibition, NuaK2
T3 sequence (Q9H093 1-628): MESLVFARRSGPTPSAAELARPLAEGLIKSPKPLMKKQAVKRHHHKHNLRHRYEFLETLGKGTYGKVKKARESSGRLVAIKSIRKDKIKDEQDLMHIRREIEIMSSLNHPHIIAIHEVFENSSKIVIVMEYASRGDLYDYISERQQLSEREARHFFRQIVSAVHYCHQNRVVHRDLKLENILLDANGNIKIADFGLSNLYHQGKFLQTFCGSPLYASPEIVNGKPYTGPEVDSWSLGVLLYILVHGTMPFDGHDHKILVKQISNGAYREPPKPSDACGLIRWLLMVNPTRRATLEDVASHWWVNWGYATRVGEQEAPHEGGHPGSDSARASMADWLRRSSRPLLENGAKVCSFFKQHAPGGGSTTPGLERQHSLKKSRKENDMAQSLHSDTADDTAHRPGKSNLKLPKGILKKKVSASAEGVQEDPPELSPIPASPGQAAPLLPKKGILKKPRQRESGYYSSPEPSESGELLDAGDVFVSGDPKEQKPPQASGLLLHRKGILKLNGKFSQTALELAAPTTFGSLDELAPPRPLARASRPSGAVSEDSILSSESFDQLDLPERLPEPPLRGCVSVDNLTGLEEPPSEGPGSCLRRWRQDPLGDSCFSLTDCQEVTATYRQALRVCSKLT

[6] = biological target: panel of 255 wild-type kinases (Homo sapiens, UniProt Q9H0K1); conditions: read-out: %-inhibition at 1 µmol/L, QIK
[7] = biological target: panel of 255 wild-type kinases (Homo sapiens, UniProt Q9HCP0); conditions: read-out: %-inhibition at 1 µmol/L, CK1γ1
[8] = biological target: panel of 255 wild-type kinases (Homo sapiens, UniProt P19525); conditions: read-out: %-inhibition at 1 µmol/L, PKR
[9] = kinase PKCγ, 1 µmol/L single concentration
[10] = NEK2, 1 µmol/L single concentration
[11] = kinase SRPK2, 1 µmol/L single concentration
[12] = kinase PKCζ, 1 µmol/L single concentration
[13] = NuaK2, 1 µmol/L single concentration
[14] = kinase QIK, 1 µmol/L single concentration
[15] = kinase CK1γ1, 1 µmol/L single concentration
[16] = kinase PKR, 1 µmol/L single concentration

inhibition at 1 µM [1, 9] [%]	inhibition at 1 µM [2, 10] [%]	inhibition at 1 µM [3, 11] [%]	inhibition at 1 µM [4, 12] [%]	inhibition at 1 µM [5, 13] [%]	inhibition at 1 µM [6, 14] [%]	inhibition at 1 µM [7, 15] [%]	inhibition at 1 µM [8, 16] [%]	SMILES	inhibition at 1 µM [1] [%]	inhibition at 1 µM [8] [%]	inhibition at 1 µM [2] [%]	inhibition at 1 µM [3] [%]	inhibition at 1 µM [4] [%]	inhibition at 1 µM [5] [%]	inhibition at 1 µM [6] [%]	inhibition at 1 µM [7] [%]
-4.38	9	-0.863	16	3.49	2.15	-1.46	2.64	C[C@H](Nc1ncnc2nc[nH]c12)c1cc2cccc(Cl)c2c(=O)n1-c1ccccc1 [duvelisib]	–	–	–	–	–	–	–	–
-1.62	-0.367	-3	0.558	0.385	-6.33	-4.74	-2.17	O=C(Nc1cnn2ccc(N3CCC[C@@H]3c3cc(F)ccc3F)nc12)N1CC[C@H](O)C1 [larotrectinib]	–	–	–	–	–	–	–	–
0.893	0.117	-1.4	10	0.626	-4	1.68	-11	Cn1cnc2c(F)c(Nc3ccc(Br)cc3F)c(C(=O)NOCCO)cc21 [binimetinib]	–	–	–	–	–	–	–	–
-0.427	2	-0.197	-1	4	-2.53	12	0.94	COc1ccc(CN2C3CC2CN(c2ccc(-c4cc(OCC(C)(C)O)cn5ncc(C#N)c45)cn2)C3)cn1 [selpercatinib]	–	–	–	–	–	–	–	–
-1.86	7.4	-1.61	14	6	2.48	-1.77	-1	Cc1nc(NC(=O)N2CCC[C@H]2C(N)=O)sc1-c1ccnc(C(C)(C)C(F)(F)F)c1 [alpelisib]	–	–	–	–	–	–	–	–
-1.73	2.8	-0.581	-1.11	6.61	-2.58	11	3.37	Cc1cc(Nc2ncnc3ccc(NC4=NC(C)(C)CO4)cc23)ccc1Oc1ccn2ncnc2c1 [tucatinib]	–	–	–	–	–	–	–	–
-0.133	9	-2.61	1	6	-4	-2.69	1.47	Cn1cnc2c(F)c(Nc3ccc(Br)cc3Cl)c(C(=O)NOCCO)cc21 [selumetinib]	–	–	–	–	–	–	–	–
4	-2.41	0.863	24	2	68	1.84	3.25	COc1cc2ncnc(Nc3ccc(F)c(Cl)c3)c2cc1NC(=O)/C=C/CN1CCCCC1 [dacomitinib]	–	–	–	–	–	–	–	–
1.41	7.4	-2.72	-0.213	75	-2.55	1.83	8	CO[C@]1(C(=O)N[C@@H](C)c2ccc(-n3cc(F)cn3)nc2)CC[C@H](c2nc(C)cc(Nc3cc(C)[nH]n3)n2)CC1 [pralsetinib]	–	–	–	–	–	–	–	–

Continued, compound first:

SMILES	inhibition at 1 µM [1, 9] [%]	inhibition at 1 µM [2, 10] [%]	inhibition at 1 µM [3, 11] [%]	inhibition at 1 µM [4, 12] [%]	inhibition at 1 µM [5, 13] [%]	inhibition at 1 µM [6, 14] [%]	inhibition at 1 µM [7, 15] [%]	inhibition at 1 µM [8, 16] [%]	inhibition at 1 µM [1] [%]	inhibition at 1 µM [8] [%]	inhibition at 1 µM [2] [%]	inhibition at 1 µM [3] [%]	inhibition at 1 µM [4] [%]	inhibition at 1 µM [5] [%]	inhibition at 1 µM [6] [%]	inhibition at 1 µM [7] [%]
COC(=O)N[C@@H](C)CNc1nccc(-c2cn(C(C)C)nc2-c2cc(Cl)cc(NS(C)(=O)=O)c2F)n1 [encorafenib]	4	2.77	2	19	3.35	-0.749	26	–	–	–	–	–	–	–	–	–
CCN1CCN(c2ccc(Nc3cc(N(C)C(=O)Nc4c(Cl)c(OC)cc(OC)c4Cl)ncn3)cc2)CC1 [infigratinib]	0.114	27	-5.51	3.18	9	26	-0.947	76	–	–	–	–	–	–	–	–
CNC(=O)c1ccc(-c2cnc3ncc(Cc4ccc5ncccc5c4)n3n2)cc1F [capmatinib]	–	–	–	–	–	–	–	–	0.161	7	2.36	-9	0.759	-1	-2.24	-1.88
FC(F)(F)c1ccc(CNc2ccc(Cc3c[nH]c4ncc(Cl)cc34)cn2)cn1 [pexidartinib]	4.68	-0.918	-1.19	13	5	11	10	-10	–	–	–	–	–	–	–	–
CCc1nc(C(N)=O)c(Nc2ccc(N3CCC(N4CCN(C)CC4)CC3)c(OC)c2)nc1NC1CCOCC1 [gilteritinib]	19	38	12	21	73	63	11	–	–	–	–	–	–	–	–	–
CCn1c(=O)c(-c2cc(NC(=O)Nc3ccccc3)c(F)cc2Br)cc2cnc(NC)cc21 [ripretinib]	0.0973	-0.18	-2.82	15	1.36	7	-0.282	-6	–	–	–	–	–	–	–	–
CN1CCN(c2ccc(C(=O)Nc3n[nH]c4ccc(Cc5cc(F)cc(F)c5)cc34)c(NC3CCOCC3)c2)CC1 [entrectinib]	1	11	21	17	95	6.5	-1.18	3.49	–	–	–	–	–	–	–	–
C[C@H]1Oc2cc(cnc2N)-c2c(nn(C)c2C#N)CN(C)C(=O)c2ccc(F)cc21 [lorlatinib]	-3.74	10	4	17	30	2.53	-2.3	0.666	–	–	–	–	–	–	–	–
CCN1C(=O)N(c2c(F)c(OC)cc(OC)c2F)Cc2cnc3[nH]c(CN4CCOCC4)cc3c21 [pemigatinib]	-0.948	-2	-6	-0.0817	1.46	6.5	-5.5	85	–	–	–	–	–	–	–	–
